Reference: the supplement of paper PMC13380429

Legend:
[1] = test system: A549-ACE2 infected with SARS-CoV-2; assay: cell count relative to DMSO; higher = less toxic; conditions: 24 h
[2] = test system: Caco-2; assay: cell viability relative to DMSO; higher = less toxic; conditions: 72 h
[3] = test system: Calu-3; assay: as above; conditions: 72 h
[4] = test system: HepG2; assay: as above; conditions: 72 h
[5] = test system: U2OS; assay: as above; conditions: 72 h
[6] = test system: Vero E6; assay: as above; conditions: 72 h
[7] = test system: A549-ACE2 infected with SARS-CoV-2; assay: SARS-CoV-2 infection rate relative to DMSO; higher = more infection; conditions: 24 h
[8] = test system: A549-ACE2; assay: phospholipidosis EC50; higher = less potent phospholipidosis inducer
[9] = test system: A549-ACE2; assay: drug-induced phospholipidosis relative to tamoxifen; higher = more phospholipidosis
[10] = test system: A549-ACE2 infected with SARS-CoV-2; assay: morphology score (similarity to uninfected cells); higher = more like uninfected cells; conditions: 24 h
[11] = test system: Caco-2; assay: relative viability EC50 (midpoint between 100% and the lowest measured viability); higher = less toxic; conditions: 72 h
[12] = test system: Calu-3; assay: as above; conditions: 72 h
[13] = test system: HepG2; assay: as above; conditions: 72 h
[14] = test system: U2OS; assay: as above; conditions: 72 h
[15] = test system: Caco-2; assay: drug sensitivity score (DSS) for viability; higher = more toxic; extreme values may be limits of the assay; conditions: 72 h
[16] = test system: Calu-3; assay: as above; conditions: 72 h
[17] = test system: HepG2; assay: as above; conditions: 72 h
[18] = test system: U2OS; assay: as above; conditions: 72 h
[19] = test system: Vero E6; assay: as above; conditions: 72 h
[20] = test system: Vero E6; assay: relative viability EC50 (midpoint between 100% and the lowest measured viability); higher = less toxic; conditions: 72 h

O=C(CCCN1CCC2(CC1)C(=O)N(Cc1cccc(F)c1)CN2c1ccccc1)c1ccc(F)cc1 [3'-fluorobenzylspiperone]
Conditions | SARS-CoV-2 infection rate [%] | cell count [%] | cell viability [%] | morphology score | phospholipidosis EC50 [µM]
[1], 0.1 µM | – | 97 | – | – | –
[1], 0.3 µM | – | 102 | – | – | –
[1], 1 µM | – | 109 | – | – | –
[1], 3 µM | – | 107 | – | – | –
[2], 1 nM | – | – | 90.9 | – | –
[2], 10 nM | – | – | 91.1 | – | –
[2], 100 nM | – | – | 100 | – | –
[2], 1000 nM | – | – | 101 | – | –
[2], 10000 nM | – | – | 27.9 | – | –
[3], 1 nM | – | – | 101 | – | –
[3], 10 nM | – | – | 106 | – | –
[3], 100 nM | – | – | 90.6 | – | –
[3], 1000 nM | – | – | 101 | – | –
[3], 10000 nM | – | – | 29.7 | – | –
[4], 1 nM | – | – | 94.6 | – | –
[4], 10 nM | – | – | 98.1 | – | –
[4], 100 nM | – | – | 95.9 | – | –
[4], 1000 nM | – | – | 103 | – | –
[4], 10000 nM | – | – | 44.4 | – | –
[5], 1 nM | – | – | 96.5 | – | –
[5], 10 nM | – | – | 102 | – | –
[5], 100 nM | – | – | 98.7 | – | –
[5], 1000 nM | – | – | 99.8 | – | –
[5], 10000 nM | – | – | 26.4 | – | –
[6], 1 nM | – | – | 103 | – | –
[6], 10 nM | – | – | 97.2 | – | –
[6], 100 nM | – | – | 93 | – | –
[6], 1000 nM | – | – | 95.1 | – | –
[6], 10000 nM | – | – | 62.9 | – | –
[7], 0.1 µM | 99 | – | – | – | –
[7], 0.3 µM | 90 | – | – | – | –
[7], 1 µM | 87 | – | – | – | –
[7], 3 µM | 17 | – | – | – | –
[8], 48 h | – | – | – | – | 2.95
[10], 0.1 µM | – | – | – | -0.13 | –
[10], 0.3 µM | – | – | – | 0.27 | –
[10], 1 µM | – | – | – | 0.46 | –
[10], 3 µM | – | – | – | 0.54 | –

drug-induced phospholipidosis [%], [9]
Conditions | 0.3 µM | 0.833333 µM | 3.33333 µM | 6.66667 µM | 10 µM | 30 µM
24 h | 3.51 | -1.7 | 29 | 48.2 | -29.1 | -34.9
48 h | 4.33 | 1.23 | 42.2 | 60 | – | –
72 h | 4.04 | 1.05 | 39.3 | 48.1 | – | –

Conditions | drug sensitivity score | relative viability EC50 [µM]
[11] | – | 3.28
[12] | – | 3.25
[13] | – | 3.46
[14] | – | 3.15
[15] | 3.9 | –
[16] | 3.8 | –
[17] | 2.7 | –
[18] | 4.1 | –
[19] | 2.6 | –

COC(=O)C1=C(C)NC(C)=C(C(=O)NCCCN2CCC(c3ccccc3)(c3ccccc3)CC2)C1c1ccc([N+](=O)[O-])cc1 (stereo not given) [SNAP-5089]
Conditions | SARS-CoV-2 infection rate [%] | cell count [%] | cell viability [%] | morphology score | phospholipidosis EC50 [µM]
[1], 0.1 µM | – | 104 | – | – | –
[1], 0.3 µM | – | 100 | – | – | –
[1], 1 µM | – | 110 | – | – | –
[1], 3 µM | – | 123 | – | – | –
[2], 1 nM | – | – | 95.4 | – | –
[2], 10 nM | – | – | 94.8 | – | –
[2], 100 nM | – | – | 92.9 | – | –
[2], 1000 nM | – | – | 106 | – | –
[2], 10000 nM | – | – | 63 | – | –
[3], 1 nM | – | – | 88.4 | – | –
[3], 10 nM | – | – | 101 | – | –
[3], 100 nM | – | – | 92.3 | – | –
[3], 1000 nM | – | – | 107 | – | –
[3], 10000 nM | – | – | 12.1 | – | –
[4], 1 nM | – | – | 114 | – | –
[4], 10 nM | – | – | 108 | – | –
[4], 100 nM | – | – | 102 | – | –
[4], 1000 nM | – | – | 98.6 | – | –
[4], 10000 nM | – | – | 35.5 | – | –
[5], 1 nM | – | – | 94.4 | – | –
[5], 10 nM | – | – | 98.7 | – | –
[5], 100 nM | – | – | 98.5 | – | –
[5], 1000 nM | – | – | 102 | – | –
[5], 10000 nM | – | – | 63.8 | – | –
[6], 1 nM | – | – | 94.8 | – | –
[6], 10 nM | – | – | 98.5 | – | –
[6], 100 nM | – | – | 97.4 | – | –
[6], 1000 nM | – | – | 91.8 | – | –
[6], 10000 nM | – | – | 74.3 | – | –
[7], 0.1 µM | 92 | – | – | – | –
[7], 0.3 µM | 107 | – | – | – | –
[7], 1 µM | 84 | – | – | – | –
[7], 3 µM | 23 | – | – | – | –
[8], 24 h | – | – | – | – | 0.945
[8], 48 h | – | – | – | – | 1.98
[8], 72 h | – | – | – | – | 4.51
[10], 0.1 µM | – | – | – | 0.15 | –
[10], 0.3 µM | – | – | – | -0.06 | –
[10], 1 µM | – | – | – | 0.43 | –
[10], 3 µM | – | – | – | 0.87 | –

drug-induced phospholipidosis [%], [9]
Conditions | 0.3 µM | 0.833333 µM | 3.33333 µM | 6.66667 µM | 10 µM | 30 µM
24 h | 5.01 | 19.9 | 66.9 | 74.6 | 62.5 | 47.6
48 h | 7.57 | 17.4 | 77.4 | 93.7 | 96.6 | –
72 h | 6.91 | 11.4 | 64.3 | 94.9 | 116 | –

Conditions | drug sensitivity score | relative viability EC50 [µM]
[12] | – | 3.57
[13] | – | 3.02
[15] | 1.4 | –
[16] | 4.4 | –
[17] | 3.7 | –
[18] | 1.6 | –
[19] | 1.9 | –

COc1cc2c(NC3CCN(C(C)C)CC3)nc(N3CCC(F)(F)CC3)nc2cc1OCCCN1CCCC1 [UNC0642]
Conditions | SARS-CoV-2 infection rate [%] | cell count [%] | cell viability [%] | morphology score | phospholipidosis EC50 [µM]
[1], 0.3 µM | – | 94 | – | – | –
[1], 3 µM | – | 122 | – | – | –
[1], 10 µM | – | 123 | – | – | –
[1], 30 µM | – | 89 | – | – | –
[2], 1 nM | – | – | 101 | – | –
[2], 10 nM | – | – | 92.5 | – | –
[2], 100 nM | – | – | 104 | – | –
[2], 1000 nM | – | – | 106 | – | –
[2], 10000 nM | – | – | 99.7 | – | –
[3], 1 nM | – | – | 93.9 | – | –
[3], 10 nM | – | – | 95.1 | – | –
[3], 100 nM | – | – | 95.3 | – | –
[3], 1000 nM | – | – | 96.6 | – | –
[3], 10000 nM | – | – | 32.9 | – | –
[4], 1 nM | – | – | 95.1 | – | –
[4], 10 nM | – | – | 103 | – | –
[4], 100 nM | – | – | 106 | – | –
[4], 1000 nM | – | – | 102 | – | –
[4], 10000 nM | – | – | 24.8 | – | –
[5], 1 nM | – | – | 98.6 | – | –
[5], 10 nM | – | – | 95.4 | – | –
[5], 100 nM | – | – | 100 | – | –
[5], 1000 nM | – | – | 98.6 | – | –
[5], 10000 nM | – | – | 81.1 | – | –
[6], 1 nM | – | – | 96.6 | – | –
[6], 10 nM | – | – | 102 | – | –
[6], 100 nM | – | – | 91.6 | – | –
[6], 1000 nM | – | – | 108 | – | –
[6], 10000 nM | – | – | 105 | – | –
[7], 0.3 µM | 87 | – | – | – | –
[7], 3 µM | 21 | – | – | – | –
[7], 10 µM | 13 | – | – | – | –
[7], 30 µM | 35 | – | – | – | –
[8], 48 h | – | – | – | – | 1.19
[8], 72 h | – | – | – | – | 3.66
[10], 0.3 µM | – | – | – | 0.09 | –
[10], 3 µM | – | – | – | 0.76 | –
[10], 10 µM | – | – | – | 0.09 | –
[10], 30 µM | – | – | – | -0.23 | –

drug-induced phospholipidosis [%], [9]
Conditions | 0.3 µM | 0.833333 µM | 3.33333 µM | 6.66667 µM | 10 µM | 30 µM
24 h | 4.47 | 9.42 | 29.6 | 35.7 | 32.6 | 5.01
48 h | 8.91 | 12.1 | 34 | 48.6 | 51.8 | 0.44
72 h | 9.24 | 11 | 36.7 | 55.6 | 62.4 | –

Conditions | drug sensitivity score | relative viability EC50 [µM]
[11] | – | > 10
[12] | – | 2.78
[13] | – | 3.34
[14] | – | > 10
[15] | 0 | –
[16] | 4.2 | –
[17] | 4 | –
[18] | 0.7 | –
[19] | 0 | –
[20] | – | > 10
